Tests used:
PvDFRa WT = PvDFRa WT (Panicum virgatum, UniProt A0A8T0SQV2); assay: Enzyme kinetic assay, wild-type PvDFRa; assay type: biochemical; conditions: for substrate inhibition at higher substrate concentrations: KI much greater than Km, could not be quantified
Experimental: (§1) Kinetic Assays of PvDFRa, SbDFR3, mutant PvDFRa, and SbFNRs: DFR was purified to the same purity as used in crystallization. Enzymatic assay followed the methodology previously reported with small changes. A solution of 0.1 M potassium phosphate at pH 7.0 was utilized, and substrate concentration was varied from 5 µM to 800 µM. The reaction was initiated with 0.05 mg enzyme in a total reaction volume of 200 µL. […] The reaction proceeded for 15 min. at 25 °C and was terminated by the addition of 600 µL 95:5 (v/v) n-butanol:HCl. […] The reactions were centrifuged for 15 min. at 14,000× g and the supernatant was used to determine product concentrations with a GENESYS™ 10S UV-Vis Spectrophotometer (Thermo Scientific, Waltham, MA, USA). The absorbances of cyanidin delphinidin and pelargonidin were measured at 550, 550, and 528 nm, respectively. The concentrations were determined based on calibrations with reference compounds (Figure S12). […] Data analysis was conducted utilizing GraphPad Prism 8.0.2 using linear regression to model the appropriate model. Error in each data point is shown utilizing the standard deviation.

PvDFRa Q242A = PvDFRa Q242A (Panicum virgatum, UniProt A0A8T0SQV2, Q242A); assay: Enzyme kinetic assay, PvDFRa Q242A mutant; assay type: biochemical; conditions: NADPH 2 mM
Experimental: (§2) Site-directed mutagenesis was conducted using primers generated with the QuikChange Primer Design (Agilent Santa Clara, CA USA).
as §1

SbFNR1 [1] = target: T1, SbFNR1 (Sorghum bicolor, UniProt C5YGL7); assay: SbFNR1 activity assay (dihydroflavonols, flavanones, anthocyanidins); assay type: biochemical; conditions: for activity of SbFNR1 against the substrate: in words
SbDFR3 [2] = target: T2, SbDFR3 (Sorghum bicolor, UniProt C5XVF8); assay: Enzyme kinetic assay, SbDFR3; conditions: NADPH 2 mM
Experimental: as §1

SbANR = SbANR activity assay (dihydroflavonols, flavanones, anthocyanidins); assay type: biochemical, Sorghum bicolor; conditions: in words
PvDFRa [3] = target: T3, PvDFRa (Panicum virgatum, UniProt A0A8T0SQV2); assay: Isothermal titration calorimetry, PvDFRa; assay type: binding; conditions: for ∆H / ∆S: 298 K
Experimental: In order to obtain thermodynamic parameters for the association, isothermal titration calorimetry (ITC) for PvDFRa was performed (Figure S8, Table 2).
Isothermal Titration Calorimetry: Purified PvDFR was dialyzed to a buffer containing 50 mM Bis-Tris, 50 mM Tricine (pH 6.5), 200 mM NaCl and 2.5% (v/v) glycerol. Substrates were dissolved in the same buffer used for enzyme dialysis. Analysis was conducted utilizing a Microcal ITC 200 (Malvern). […] A total of 22 injections were made, each with a volume of 2 uL. Data analysis was conducted utilizing Origin Software 7 and modeled to the appropriate nonlinear regression.

SbFNR2 = SbFNR2 activity assay (dihydroflavonols, flavanones, anthocyanidins); assay type: biochemical, Sorghum bicolor; conditions: for activity of SbFNR2 against the substrate: in words
SbFNR1 [4] = target: T1, SbFNR1; assay: Isothermal titration calorimetry, SbFNR1; assay type: binding; conditions: ITC
[5] = system: O=C1c2c(O)cc(O)cc2O[C@H](c2cc(O)c(O)c(O)c2)[C@H]1O; assay: purified protein, by the assay type; conditions: other: NADPH 2 mM
[6] = system: O=C1c2c(O)cc(O)cc2O[C@H](c2ccc(O)cc2)[C@H]1O; assay: purified protein, by the assay type; conditions: other: NADPH 2 mM
[7] = system: O=C1c2c(O)cc(O)cc2OC(c2ccc(O)c(O)c2)[C@H]1O; assay: purified protein, by the assay type; conditions: other: NADPH 2 mM
[8] = system: O=C1C[C@@H](c2ccc(O)cc2)Oc2cc(O)cc(O)c21; assay: purified protein, by the assay type; conditions: other: NADPH 2 mM, pH 7.0, 25 °C, 25.0 °C
SbDFR3 [9] = target: T2, SbDFR3; assay: SbDFR3 activity against anthocyanidins (ANR activity); assay type: biochemical; conditions: anthocyanidin reduction
Experimental: (§3) To measure any overlapping specificity among FNR, DFR, and ANR for anthocyanidins, their activity against cyanidin, pelargonidin, and delphinidin were assayed.
(§4) LC-MS was used to analyze the various flavonoids using a Waters Xevo TQ-MS mass spectrometer interfaced with a Waters Acquity UPLC. […] The chromatographic conditions used were based on. The mobile phase used was a binary gradient of water with 0.1% (v/v) formic acid (Solvent A) and methanol with 0.1% formic acid (Solvent B). The solvent flow rate was 0.2 mL min^-1. and the initial solvent composition was 20% B/80% A and was constant for the first minute following sample injection. Gradient elution was accomplished by increasing the ratio of solvent B to solvent A from 20:80 to 65:35 over 10 min. using a linear gradient, and then increased to 100:0 over the next 4 min. The composition was maintained at 100% B for 5 min., returned to 80%A/20%B over the next 3 min., and held at that ratio for the next 3 min. […]
(§5) Appropriate daughter ions to be used for multiple reaction monitoring (MRM) of (-)-epicatechin were identified by infusing standard and recording spectra. The optimum cone voltage and collision energy of epicatechin were also determined in these infusion experiments. […]

PvDFRa [10] = target: T3, PvDFRa; assay: PvDFRa activity against anthocyanidins (ANR activity); assay type: biochemical; conditions: anthocyanidin reduction
Experimental: as §3, §4, §5

PvDFRa T143S = PvDFRa T143S (Panicum virgatum, UniProt A0A8T0SQV2, T143S); assay: Enzyme kinetic assay, PvDFRa T143S mutant; assay type: biochemical; conditions: relative to wild-type PvDFRa
Experimental: as §2, §1

O=C1c2c(O)cc(O)cc2O[C@H](c2cc(O)c(O)c(O)c2)[C@H]1O [DHM, dihydromyricetin]
substrate inhibition at higher substrate concentrations (PvDFRa WT): substrate inhibition was observed
kcat (PvDFRa Q242A): 0.03788 s⁻¹
activity of SbFNR1 against the substrate (SbFNR1 [1]): no significant activity
kcat (SbDFR3 [2]): 0.07733 s⁻¹
activity of SbANR against the substrate (SbANR): no significant activity
Kd (PvDFRa [3]): 21.2 ± 3.26 µM
∆H (PvDFRa [3]; ITC): -9.10 ± 2.45 kcal/mol
∆S (PvDFRa [3]; ITC): −9.14 Cal mol^−1 K^−1
activity of SbFNR2 against the substrate (SbFNR2): no significant activity

NADP^+
NADP^+-binding affinity relative to affinity for DHQ (PvDFRa [3]; ITC): roughly 100 times
∆H (PvDFRa [3]; ITC): -9.41 ± 0.15 kcal/mol
∆S (PvDFRa [3]; ITC): −0.226 Cal mol^−1 K^−1
∆H (SbFNR1 [4]): -1.12 ± 0.72 kcal/mol
∆S (SbFNR1 [4]): −15.4 Cal mol^−1 K^−1

PvDFRa WT (Panicum virgatum)
Km ([5]; pH 7.0, 25 °C, 25.0 °C): 150.0 ± 56.9 µM
kcat ([5]; pH 7.0, 25 °C, 25.0 °C): 0.0377 s⁻¹
kcat/Km ([5]; pH 7.0, 25 °C, 25.0 °C): 251 M⁻¹ s⁻¹
kcat ([6]; pH 7.0, 25 °C, 25.0 °C): 0.0121 s⁻¹
kcat/Km ([6]; pH 7.0, 25 °C, 25.0 °C): 63.2 M⁻¹ s⁻¹
Km ([7]; pH 7.0, 25 °C, 25.0 °C): 128.6 ± 14.3 µM
kcat ([7]; pH 7.0, 25 °C, 25.0 °C): 0.0559 s⁻¹
kcat/Km ([7]; pH 7.0, 25 °C, 25.0 °C): 435 M⁻¹ s⁻¹
Km [8]: 407.6 ± 223.6 µM
kcat [8]: 0.0592 s⁻¹
kcat/Km [8]: 145 M⁻¹ s⁻¹

NADH
enzyme efficiency with NADH relative to NADPH (PvDFRa WT; NADH utilized instead of NADPH): 60.55%

PvDFRa T143S (Panicum virgatum; T143S)
Km ([5]; pH 7.0): 7.409 ± 0.2465 µM
kcat ([5]; pH 7.0): 0.0176 s⁻¹
kcat/Km ([5]; pH 7.0): 2380 M⁻¹ s⁻¹
Km ([6]; pH 7.0): 137.7 ± 36.00 µM
kcat ([6]; pH 7.0): 0.00956 s⁻¹
kcat/Km ([6]; pH 7.0): 69.3 M⁻¹ s⁻¹
Km ([7]; pH 7.0): 19.04 ± 11.21 µM
kcat ([7]; pH 7.0): 0.0293 s⁻¹
kcat/Km ([7]; pH 7.0): 1540 M⁻¹ s⁻¹

Oc1cc(O)c2cc(O)c(-c3ccc(O)c(O)c3)[o+]c2c1 [cyanidin]
efficiency relative to the activity of SbANR (SbFNR1 [1]; anthocyanidin reduction): 11.9%
activity as % of the activity of SbANR (SbDFR3 [9]): 0.9%
efficiency relative to the activity of SbANR (SbFNR2; anthocyanidin reduction): 7.4%
activity as % of the activity of SbANR (PvDFRa [10]): 0.5%

O=C1C[C@@H](c2ccc(O)cc2)Oc2cc(O)cc(O)c21 [Naringenin, naringenin]
substrate inhibition at higher substrate concentrations (PvDFRa WT): substrate inhibition occurred
kcat for flavanones, given for PvDFRa (PvDFRa WT; NADPH 2 mM): 0.03473 s⁻¹
kcat (PvDFRa WT; NADPH 2 mM, pH 7.0, 25 °C): 0.05915 s⁻¹
product yield compared to PvDFRa and SbDFR3 (SbFNR1 [1]; flavanones, long incubation): ~ 3%
activity of SbANR against the substrate (SbANR): did not display any activity
Kd (PvDFRa [3]): 177 ± 25.3 µM
∆H (PvDFRa [3]; ITC): -4.82 ± 0.39 kcal/mol
∆S (PvDFRa [3]; ITC): 0.986 Cal mol^−1 K^−1
activity of SbFNR2 against the substrate (SbFNR2): did not display any activity

O=C1c2c(O)cc(O)cc2O[C@H](c2ccc(O)c(O)c2)[C@H]1O [DHQ, dihydroquercetin]
substrate inhibition at higher substrate concentrations (PvDFRa WT): substrate inhibition was observed
kcat (PvDFRa Q242A): 0.04285 s⁻¹
activity of SbFNR1 against the substrate (SbFNR1 [1]): no significant activity
kcat (SbDFR3 [2]): 0.06325 s⁻¹
activity of SbANR against the substrate (SbANR): no significant activity
Kd (PvDFRa [3]): 16.9 ± 4.35 µM
∆H (PvDFRa [3]; ITC): -10.77 ± 0.18 kcal/mol
∆S (PvDFRa [3]; ITC): −13.7 Cal mol^−1 K^−1
activity of SbFNR2 against the substrate (SbFNR2): no significant activity
increased catalytic efficiency of T143S mutant (PvDFRa T143S): 3.53 fold

Reference: PMC10531346, “Structural Similarities and Overlapping Activities among Dihydroflavonol 4-Reductase, Flavanone 4-Reductase, and Anthocyanidin Reductase Offer Metabolic Flexibility in the Flavonoid Pathway” (International Journal of Molecular Sciences, 2023)
